Patent US20180193490A1, “Beta Amyloid Staging” (GE HEALTHCARE LIMITED, priority 2015, published 2018)

Biological target: T1, beta amyloid (Aβ) plaques in the brain (Homo sapiens, UniProt P05067)
T1 construct: from tissue; host or cells: brain of living subjects (cortex and striatum), in vivo PET
Assay: Provisional SUVR analysis of GE067-026 PET images (Cortex ID, cortex and striatal VOIs)
Assay type: in vivo
Conditions: for Cases C+S+ by SUVR analysis of cortical and striatal beta amyloid uptake / Cases C+S− by SUVR analysis of cortical and striatal beta amyloid uptake / Cases C−S+ by SUVR analysis of cortical and striatal beta amyloid uptake / Cases C−S− by SUVR analysis of cortical and striatal beta amyloid uptake: SUVRpons thresholds
Protocol: Some work has been performed to assess the quantitative SUVR measures from the GE067-026 cohort.
In an automated SUVR assessment methodology using GE software Cortex ID (J Lilja) PET images were quantitated using separate cortex and striatal VOIs. The SUVRs were determined for the cortical and striatal values using 3 different reference regions; whole cerebellum, cerebellar grey and pons.
Thresholding was determined by multiple methods to identify which method provided the greatest accuracy (See Setting SUVR thresholds)
The thresholds determined by ROC analysis for Phase 3 or above being abnormal gave the best sensitivity and specificity for cortical assessments. A similar approach gave the best sensitivity and specificity for the striatal assessments. Using the whole cerebellum as a reference region or pons as the reference region gave the best sensitivity and specificity (see Table 4).
Combining these thresholds to determine cortical and striatal positivity based upon SUVRpons values gave similar results to those see by BIE assessment. Of 5 C+S− cases 3 […] were Thal phase 3.
SUVR thresholds were set using two methods. • (1) Statistical determination • (2) Receiver operator characteristics
For statically determined thresholds the algorithm depicted in FIG. 1 was applied. Briefly, all cases were identified as negative or positive based on histopathology. For the cortex this was based on the GE067-026 standard of truth^2—abnormal or normal based on any regional Bielschowsky score>1.5=abnormal and all regional scores≤1.5=normal. For the striatum this was based on the identification of “Frequent” plaques by amyloid-β IHC (4G8). The threshold determinations are calculated in the file Cortex ID SUVR thresholds.xlsx. ^2 For the GE067-007 and -026 autopsy trials the primary endpoint was Bielschowsky silver stain (BSS) scores of CERAD based neuritic plaque density. 0=none, 1=sparse, 2=moderate and 3=frequent. Multiple measures were averaged and the arithmetic mean between none/sparse (normal) and moderate/frequent (abnormal=1.5. Any case with a regional BSS score>1.5 was deemed abnormal.
The SUVR means and standard deviations were calculated for normal and abnormal subjects for each of the SUVR measures; Cortex and striatum and for each of the SUVR reference regions. The threshold was determined to be the SUVR value at which the fractional standard deviation is equal between the two population means i.e. when the normal mean plus y times the normal SD is equal to the abnormal mean minus y times the abnormal SD.
A statistically based threshold was determined for abnormal and normal cases (based on histopathology) and applied to cortical and striatal SUVRs separately.
A variant of the above threshold was determined based upon the Thal phases. Thus the threshold for the cortex and striatum was determined between phase 0 and 1, between phase 1 and phase 2 . . . etc. This gave 15 threshold values (5 to discriminate each phase and 1 for each of the 3 reference regions; 15 in total)
This is an empirically determined threshold that by definition identifies the threshold that gives the best sensitivity and specificity.
Receiver operator characteristics analysis determines the sensitivity and specificity given a variable threshold. The most appropriate threshold is then determined by the maximum of the sum of the sensitivity and specificity.

T1 sequence (P05067 672-713 limits assumed): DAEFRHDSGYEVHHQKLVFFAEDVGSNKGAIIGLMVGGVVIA

CNc1ccc(-c2nc3ccc(O)cc3s2)cc1F [Flutemetamol]
Cases C+S+ by SUVR analysis of cortical and striatal beta amyloid uptake (Amyloid Thal phase 0): 0 | Cases C+S− by SUVR analysis of cortical and striatal beta amyloid uptake (Amyloid Thal phase 0): 0 | Cases C−S+ by SUVR analysis of cortical and striatal beta amyloid uptake (Amyloid Thal phase 0): 0 | Cases C−S− by SUVR analysis of cortical and striatal beta amyloid uptake (Amyloid Thal phase 0): 7 | Cases C+S+ by SUVR analysis of cortical and striatal beta amyloid uptake (Amyloid Thal phase 1): 0 | Cases C+S− by SUVR analysis of cortical and striatal beta amyloid uptake (Amyloid Thal phase 1): 0 | Cases C−S+ by SUVR analysis of cortical and striatal beta amyloid uptake (Amyloid Thal phase 1): 0 | Cases C−S− by SUVR analysis of cortical and striatal beta amyloid uptake (Amyloid Thal phase 1): 8 | Cases C+S+ by SUVR analysis of cortical and striatal beta amyloid uptake (Amyloid Thal phase 2): 0 | Cases C+S− by SUVR analysis of cortical and striatal beta amyloid uptake (Amyloid Thal phase 2): 0 | Cases C−S+ by SUVR analysis of cortical and striatal beta amyloid uptake (Amyloid Thal phase 2): 0 | Cases C−S− by SUVR analysis of cortical and striatal beta amyloid uptake (Amyloid Thal phase 2): 5 | Cases C+S+ by SUVR analysis of cortical and striatal beta amyloid uptake (Amyloid Thal phase 3): 1 | Cases C+S− by SUVR analysis of cortical and striatal beta amyloid uptake (Amyloid Thal phase 3): 3 | Cases C−S+ by SUVR analysis of cortical and striatal beta amyloid uptake (Amyloid Thal phase 3): 0 | Cases C−S− by SUVR analysis of cortical and striatal beta amyloid uptake (Amyloid Thal phase 3): 8 | Cases C+S+ by SUVR analysis of cortical and striatal beta amyloid uptake (Amyloid Thal phase 4): 16 | Cases C+S− by SUVR analysis of cortical and striatal beta amyloid uptake (Amyloid Thal phase 4): 1 | Cases C−S+ by SUVR analysis of cortical and striatal beta amyloid uptake (Amyloid Thal phase 4): 2 | Cases C−S− by SUVR analysis of cortical and striatal beta amyloid uptake (Amyloid Thal phase 4): 3 | Cases C+S+ by SUVR analysis of cortical and striatal beta amyloid uptake (Amyloid Thal phase 5): 44 | Cases C+S− by SUVR analysis of cortical and striatal beta amyloid uptake (Amyloid Thal phase 5): 1 | Cases C−S+ by SUVR analysis of cortical and striatal beta amyloid uptake (Amyloid Thal phase 5): 0 | Cases C−S− by SUVR analysis of cortical and striatal beta amyloid uptake (Amyloid Thal phase 5): 1 | Sum of sensitivity and specificity (Average over all thresholds, reference region Cer): 163% | Sum of sensitivity and specificity (Average over all thresholds, reference region Pons): 168% | Sum of sensitivity and specificity (Average over all thresholds, reference region Wcer): 168% | Phase 3 cases identified as C+S− between the two methods (BIE and SUVR) (BIE and SUVR combined): 6 | Sum of sensitivity and specificity (CTX BSS ROC abnormality threshold, Average of reference regions): 177% | Sum of sensitivity and specificity (CTX BSS ROC abnormality threshold, reference region Cer): 176% | Sum of sensitivity and specificity (CTX BSS ROC abnormality threshold, reference region Pons): 174% | Sum of sensitivity and specificity (CTX BSS ROC abnormality threshold, reference region Wcer): 180% | Sum of sensitivity and specificity (CTX Max Mirra ROC abnormality threshold, Average of reference regions): 170% | Sum of sensitivity and specificity (CTX Max Mirra ROC abnormality threshold, reference region Cer): 170% | Sum of sensitivity and specificity (CTX Max Mirra ROC abnormality threshold, reference region Pons): 167% | Sum of sensitivity and specificity (CTX Max Mirra ROC abnormality threshold, reference region Wcer): 173% | Sum of sensitivity and specificity (CTX Mirra mode ROC abnormality threshold, Average of reference regions): 172% | Sum of sensitivity and specificity (CTX Mirra mode ROC abnormality threshold, reference region Cer): 170% | Sum of sensitivity and specificity (CTX Mirra mode ROC abnormality threshold, reference region Pons): 173% | Sum of sensitivity and specificity (CTX Mirra mode ROC abnormality threshold, reference region Wcer): 174% | Sum of sensitivity and specificity (CTX Phase1 threshold, Average of reference regions): 139% | Sum of sensitivity and specificity (CTX Phase1 threshold, reference region Cer): 142% | Sum of sensitivity and specificity (CTX Phase1 threshold, reference region Pons): 129% | Sum of sensitivity and specificity (CTX Phase1 threshold, reference region Wcer): 145% | Sum of sensitivity and specificity (CTX Phase2 threshold, Average of reference regions): 155% | Sum of sensitivity and specificity (CTX Phase2 threshold, reference region Cer): 153% | Sum of sensitivity and specificity (CTX Phase2 threshold, reference region Pons): 158% | Sum of sensitivity and specificity (CTX Phase2 threshold, reference region Wcer): 152% | Sum of sensitivity and specificity (CTX Phase 3 + ROC abnormality threshold, Average of reference regions): 183% | Sum of sensitivity and specificity (CTX Phase 3 + ROC abnormality threshold, reference region Cer): 180% | Sum of sensitivity and specificity (CTX Phase 3 + ROC abnormality threshold, reference region Pons): 186%
